# Laboratory results as given in patent US20080234202A1, “Non-natural amino acids and neurotensin analogues” (priority 2004, published 2008).
# Where a SMILES comes first, the peptide text is derived from it. [ ]: non-standard residue; d: D form. The star is where a group is joined. Tle = CC(C)(C)[C@H](N)C(=O)O; X1 = C[C@@H](CCCCCN)C(=O)*
# Assays:
# [1] = Catalepsy, horizontal bar test; details: Table 11
# Method: Cataleptic Analysis. In laboratory tests, catalepsy is characterized by the inability of an animal to correct its position after placement in an unnatural posture. […] To circumvent these potential confounding factors, tests are performed on an animal only once in a quiet, controlled environment.
# Catalepsy Assessment. […] Rats were given an IP injection of peptide (5 mg/Kg), saline, or haloperidol (1 mg/kg). After 3 hours, catalepsy was measured using the horizontal bar test. Briefly, the front paws were placed directly on a horizontal bar 5 mm in diameter placed 7.5 cm above the cage floor. The rat was held in this position for 3 sec and then released. The time from release until the paws return to the cage floor was measured and recorded. A cut-off time of 30 sec was observed; this indicated a fully cataleptic animal as cataleptic animals are frozen to the bar. […] Measures were repeated every 30 min for 4 hr. Data are means±SEM (p<0.01).
# After 2 h, catalepsy was measured using the horizontal bar test. Data are means±SEM (p<0.01).
# [2] = target: T1, CYP2B6 (Homo sapiens, UniProt P20813); test: Liver CYP screening: CYP2B6; details: 10^−3, 10^−2, 0.1 M
# T1 sequence (P20813 1-491): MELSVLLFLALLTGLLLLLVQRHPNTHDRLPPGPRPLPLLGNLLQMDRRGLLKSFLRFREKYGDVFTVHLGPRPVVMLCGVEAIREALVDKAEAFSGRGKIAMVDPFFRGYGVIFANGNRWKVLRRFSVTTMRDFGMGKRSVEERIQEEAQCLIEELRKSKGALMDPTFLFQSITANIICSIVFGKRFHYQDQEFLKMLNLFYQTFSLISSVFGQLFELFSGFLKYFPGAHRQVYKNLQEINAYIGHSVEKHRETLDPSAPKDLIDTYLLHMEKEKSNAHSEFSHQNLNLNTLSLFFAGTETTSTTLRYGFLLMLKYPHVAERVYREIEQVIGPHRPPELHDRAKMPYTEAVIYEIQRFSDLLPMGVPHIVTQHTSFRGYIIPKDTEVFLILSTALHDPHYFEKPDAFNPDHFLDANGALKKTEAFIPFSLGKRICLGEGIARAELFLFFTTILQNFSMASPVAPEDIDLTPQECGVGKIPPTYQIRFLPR
# Excerpt: (§1) Liver Receptor Screening (Stanford Research Institute Study B213-06).
# [3] = target: CYP2C9 (Homo sapiens, UniProt P11712); test: Liver CYP screening: CYP2C9; details: 10^−3, 10^−2, 0.1 M
# Chain of CYP2C9 (P11712 whole entry): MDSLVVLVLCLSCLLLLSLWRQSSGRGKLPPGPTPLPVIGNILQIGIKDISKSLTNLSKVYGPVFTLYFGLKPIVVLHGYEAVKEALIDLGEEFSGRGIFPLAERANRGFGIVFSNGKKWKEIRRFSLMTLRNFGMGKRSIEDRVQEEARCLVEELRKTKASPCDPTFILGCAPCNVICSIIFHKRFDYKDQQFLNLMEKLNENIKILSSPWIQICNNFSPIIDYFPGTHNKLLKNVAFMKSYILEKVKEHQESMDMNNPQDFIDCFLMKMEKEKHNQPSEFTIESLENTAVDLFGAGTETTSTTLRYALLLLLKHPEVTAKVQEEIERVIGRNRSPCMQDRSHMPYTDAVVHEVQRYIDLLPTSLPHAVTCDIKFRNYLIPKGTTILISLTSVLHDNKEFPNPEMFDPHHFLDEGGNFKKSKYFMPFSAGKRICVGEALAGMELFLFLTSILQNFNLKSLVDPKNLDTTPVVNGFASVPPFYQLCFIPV
# Excerpt: as §1
# [4] = target: CYP2D6 (Homo sapiens, UniProt P10635); test: Liver CYP screening: CYP2D6; details: 10^−3, 10^−2, 0.1 M
# Chain of CYP2D6 (P10635 whole entry): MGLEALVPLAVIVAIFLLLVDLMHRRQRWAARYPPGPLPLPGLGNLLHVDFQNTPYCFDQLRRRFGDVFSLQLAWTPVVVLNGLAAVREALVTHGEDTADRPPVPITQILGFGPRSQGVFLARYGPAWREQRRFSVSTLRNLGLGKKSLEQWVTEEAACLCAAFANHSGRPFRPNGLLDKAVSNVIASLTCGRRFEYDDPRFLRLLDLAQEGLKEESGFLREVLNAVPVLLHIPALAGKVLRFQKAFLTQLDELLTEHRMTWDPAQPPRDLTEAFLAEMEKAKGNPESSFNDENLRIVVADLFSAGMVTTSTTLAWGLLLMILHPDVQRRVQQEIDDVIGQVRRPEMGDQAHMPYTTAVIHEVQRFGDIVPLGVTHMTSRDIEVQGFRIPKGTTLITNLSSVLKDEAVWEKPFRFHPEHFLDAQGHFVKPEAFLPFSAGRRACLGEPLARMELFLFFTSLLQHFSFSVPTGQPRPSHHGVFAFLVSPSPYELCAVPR
# Excerpt: as §1
# [5] = Method: These samples were used for the determination of plasma drug by LC/MS/MS for estimating pharmacokinetic parameters and segmental absorption. The bioavailability of intra-stomach, intra-duodenum, intra-jejunum, intra-colon administration relative to intravenous administration and gavage was calculated.
# [6] = whole blood, 5 or 30 min at 37° C.
# [7] = tested on: mouse bone marrow cells; test: Micronucleus study; assay type: in vivo; details: oral, CD-1 mice; initial data
# Method: Genetic Toxicology. […] Experimental protocols are as follows.
# In the micronucleus study, 90 CD-1 mice used in the study consisted of 10/sex/group in Groups 1-4 (control, low-, mid-, and high-dose) and 5/sex in the positive control group. Test peptide as administered orally, the positive control, Cyclophosphamide at 80 mg/kg, as administered orally. Approximately 24 and 48 hours after dosing, mice were killed and bone marrow obtained from both femurs. A slide of a bone marrow suspension was prepared, stained with Wright-Giemsa stain, dried, and scored blind. The number of polychromatic erythrocytes (PCE) among the total erythrocytes (PCE+normochromatic erythrocytes (NCE)) were determined for each animal by counting at least 200 erythrocytes. The number of micronucleated polychromatic erythrocytes (MPCE) then were scored for 2000 PCE per animal. A positive result was obtained if there is a positive dose-response trend or statistically significant increase in the number of MPCE at one or more dose levels compared to controls.
# [8] = 5 or 30 min incubation at 37° C.
# [9] = target: T2, CYP1A2 (Homo sapiens, UniProt P05177); test: Liver CYP screening: CYP1A2; details: 10^−3, 10^−2, 0.1 M
# T2 sequence (P05177 1-516): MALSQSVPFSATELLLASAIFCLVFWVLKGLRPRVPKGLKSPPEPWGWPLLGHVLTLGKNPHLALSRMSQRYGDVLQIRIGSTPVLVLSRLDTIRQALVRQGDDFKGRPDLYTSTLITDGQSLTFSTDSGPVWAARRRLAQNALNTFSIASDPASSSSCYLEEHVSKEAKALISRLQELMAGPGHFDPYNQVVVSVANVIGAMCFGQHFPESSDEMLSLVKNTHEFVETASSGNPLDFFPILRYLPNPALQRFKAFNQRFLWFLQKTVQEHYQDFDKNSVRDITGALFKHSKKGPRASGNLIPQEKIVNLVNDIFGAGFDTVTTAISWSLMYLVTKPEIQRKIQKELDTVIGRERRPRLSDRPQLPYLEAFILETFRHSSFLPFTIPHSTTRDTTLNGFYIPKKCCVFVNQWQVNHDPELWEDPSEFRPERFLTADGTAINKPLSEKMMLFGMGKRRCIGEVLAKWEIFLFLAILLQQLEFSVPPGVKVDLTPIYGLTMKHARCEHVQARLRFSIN
# Excerpt: as §1
# [10] = target: CYP2C19 (Homo sapiens, UniProt P33261); test: Liver CYP screening: CYP2C19; details: 10^−3, 10^−2, 0.1 M
# Chain of CYP2C19 (P33261 whole entry): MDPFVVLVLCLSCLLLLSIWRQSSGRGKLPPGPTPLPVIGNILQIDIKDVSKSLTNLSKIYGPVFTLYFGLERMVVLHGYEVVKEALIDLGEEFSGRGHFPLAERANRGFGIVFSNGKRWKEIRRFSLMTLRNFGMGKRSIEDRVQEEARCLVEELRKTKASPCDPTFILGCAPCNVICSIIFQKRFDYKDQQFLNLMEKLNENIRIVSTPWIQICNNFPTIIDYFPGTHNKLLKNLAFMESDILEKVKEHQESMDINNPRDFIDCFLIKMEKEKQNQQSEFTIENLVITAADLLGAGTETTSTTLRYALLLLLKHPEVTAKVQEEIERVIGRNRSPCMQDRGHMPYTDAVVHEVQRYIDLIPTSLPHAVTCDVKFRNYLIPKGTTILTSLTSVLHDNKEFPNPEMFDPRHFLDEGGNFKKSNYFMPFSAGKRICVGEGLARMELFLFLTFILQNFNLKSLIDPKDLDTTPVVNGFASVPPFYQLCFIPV
# Excerpt: as §1
# [11] = target: CYP3A4 (Homo sapiens, UniProt P08684); test: Liver CYP screening: CYP3A4; details: 10^−3, 10^−2, 0.1 M
# Chain of CYP3A4 (P08684 whole entry): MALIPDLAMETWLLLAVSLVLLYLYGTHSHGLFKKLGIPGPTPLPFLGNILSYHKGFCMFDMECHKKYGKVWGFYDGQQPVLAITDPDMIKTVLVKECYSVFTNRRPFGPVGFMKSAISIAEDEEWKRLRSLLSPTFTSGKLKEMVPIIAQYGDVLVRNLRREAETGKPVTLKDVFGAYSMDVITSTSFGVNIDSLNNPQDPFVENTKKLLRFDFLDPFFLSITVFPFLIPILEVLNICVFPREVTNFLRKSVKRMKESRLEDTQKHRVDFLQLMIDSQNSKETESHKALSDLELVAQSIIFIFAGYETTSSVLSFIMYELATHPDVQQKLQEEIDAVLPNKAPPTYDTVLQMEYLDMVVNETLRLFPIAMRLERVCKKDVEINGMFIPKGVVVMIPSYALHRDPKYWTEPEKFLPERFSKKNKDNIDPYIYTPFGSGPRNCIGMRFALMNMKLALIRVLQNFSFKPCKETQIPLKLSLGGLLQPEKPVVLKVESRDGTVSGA
# Excerpt: as §1
# [12] = target: hERG (human ether-a-go-go related gene) channels (Homo sapiens, UniProt Q12809); details: HEK293, 35±2° C.; initial results
# Chain of hERG (human ether-a-go-go related gene) channels (Q12809 whole entry): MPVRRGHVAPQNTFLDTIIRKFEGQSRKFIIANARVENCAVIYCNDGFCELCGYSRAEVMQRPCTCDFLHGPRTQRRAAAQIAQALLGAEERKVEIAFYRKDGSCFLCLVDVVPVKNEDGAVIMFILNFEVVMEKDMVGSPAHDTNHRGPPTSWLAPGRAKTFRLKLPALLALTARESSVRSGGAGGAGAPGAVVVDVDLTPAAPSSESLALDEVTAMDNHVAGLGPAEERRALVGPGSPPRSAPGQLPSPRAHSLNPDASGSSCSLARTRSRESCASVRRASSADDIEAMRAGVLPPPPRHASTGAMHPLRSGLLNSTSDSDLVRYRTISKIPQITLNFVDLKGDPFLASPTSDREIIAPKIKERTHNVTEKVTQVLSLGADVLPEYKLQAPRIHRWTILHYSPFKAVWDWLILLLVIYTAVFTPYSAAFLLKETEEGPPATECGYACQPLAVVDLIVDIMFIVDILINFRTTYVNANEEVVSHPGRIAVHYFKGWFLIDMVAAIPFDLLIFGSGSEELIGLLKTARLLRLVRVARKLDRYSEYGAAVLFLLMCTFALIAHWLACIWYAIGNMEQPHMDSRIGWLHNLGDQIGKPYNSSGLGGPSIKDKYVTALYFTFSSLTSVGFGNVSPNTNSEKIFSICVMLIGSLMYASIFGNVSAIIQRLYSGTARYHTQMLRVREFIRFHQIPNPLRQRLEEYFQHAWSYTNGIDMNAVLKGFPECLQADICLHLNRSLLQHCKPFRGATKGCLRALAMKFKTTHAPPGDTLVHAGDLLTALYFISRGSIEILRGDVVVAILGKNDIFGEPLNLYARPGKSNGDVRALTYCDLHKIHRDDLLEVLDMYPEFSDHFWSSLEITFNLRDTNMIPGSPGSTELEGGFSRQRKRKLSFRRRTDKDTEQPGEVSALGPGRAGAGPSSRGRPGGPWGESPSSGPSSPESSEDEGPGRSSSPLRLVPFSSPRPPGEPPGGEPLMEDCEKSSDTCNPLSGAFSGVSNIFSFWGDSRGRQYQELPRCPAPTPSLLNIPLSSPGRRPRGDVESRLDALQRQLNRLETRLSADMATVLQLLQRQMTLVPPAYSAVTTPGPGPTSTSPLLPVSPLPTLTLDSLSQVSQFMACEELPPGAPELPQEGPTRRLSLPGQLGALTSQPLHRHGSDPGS
# Method: hERG Assay. The objective of the hERG study is to assess the effects of the test article on the rapidly activating inward rectifying potassium current (IKr) conducted by hERG (human ether-a-go-go related gene) channels stably expressed in a HEK293 cell line. The method used is as follows. HEK293 cells, stably transfected with hERG cDNA, were used in the study. All experiments were performed at near-physiological temperature (35±2° C.). A positive control (60 nM terfenadine) was applied to two cells (n≧2). Cells were be transferred to the recording chamber and superfused with HB-PS solution. The recording chamber and bathing solution were maintained at a temperature of 35±2° C. using a combination of in-line solution pre-heater, chamber floor heater, and feedback temperature controller. Bath temperature were measured using a thermistor probe.
# Patch pipettes were made from glass capillary tubing using a P-97 micropipette puller (Sutter Instruments, Calif.). A commercial patch clamp amplifier was used for whole cell recordings. Before digitization, current records were low-pass filtered at one-fifth of the sampling frequency.
# Cells stably expressing hERG were held at −80 mV.
# [13] = Blood and plasma pharmacokinetics of ABS201 in rats
# Excerpt: At selected time points, blood was removed or brain harvested and the concentration of the peptide analog determined using LC/MS/MS.
# These samples were then used for the determination of plasma and brain drug levels by LC/MS/MS for estimating BBB penetration and pharmacokinetic parameters.
# [14] = Acute toxicity, clinical observation and maximum tolerated dose in rats; assay type: in vivo, rat
# Method: During the 2 and 24 hour post-dosing clinical observation periods, measurements of core body temperatures were taken.
smiles,measurement,setting,value
"CC(C)C[C@H](NC(=O)[C@@H](NC(=O)[C@H](Cc1ccc(O)cc1)NC(=O)[C@@H]1CCCN1C(=O)[C@H](CCCNC(=N)N)NC(=O)[C@@H](C)CCCCCN)C(C)(C)C)C(=O)O [ABS201, hLys-Arg-Pro-Tyr-t-Leu-Leu] (X1-RPY[Tle]L-OH)",Catalepsy,[1],No
same,inhibition of substrate binding,[2],No inhibition
same,inhibition of substrate binding,[3],No inhibition
same,inhibition of substrate binding,[4],No inhibition
same,segment with maximal uptake,[5]; in situ looped models,intra-duodenum exhibiting the maximal amount of uptake
same,site of absorption in the GI tract,[5]; in situ looped models,absorbed almost entirely in the intestine
same,uptake in the stomach,[5]; intra-stomach,Virtually no ABS201 is taken up in the stomach
same,distribution into blood cellular elements,[6],about 33%
same,micronucleus study result,[7],inactive
same,binding to plasma proteins,[8],little or no binding
same,inhibition of substrate binding,[9],No inhibition
same,inhibition of substrate binding,[10],No inhibition
same,inhibition of substrate binding,[11],No inhibition
same,hERG study result,[12],inactive
same,time by which plasma levels decreased below the LLOD,[13]; IV 1 mg/kg,≤ 45 min
same,clearance as % of rat hepatic blood flow,[13]; IV 5 mg/kg,74.02%
same,time over which measurable in whole blood,[13]; IV 5 mg/kg,up to 120 minutes
same,time over which detectable in the blood and brain,"[13]; IV 5 mg/kg or oral 50 mg/kg, LC/MS/MS",up to 120 minutes
same,lower limit for the MTD,"[14]; rat, in vivo",≥ 100 times the ED50
same,"Toxicity, dose without toxicity",[14]; single acute dose I.P.,(>100 × ED50)
same,Toxicity,[14]; single acute dose at 100x ED50 administered I.P.,No
